Source: article PMC7710018, “Restoration of motor learning in a mouse model of Rett syndrome following long-term treatment with a novel small-molecule activator of TrkB” (Disease Models & Mechanisms, 2020)
Like-named read-outs stand apart in the source and are kept apart here.

What was measured:
[1] = system: Het mice; parameters: method as in Li et al., 2017; details: long-term treatment of Het mice; ref Li et al., 2017; cited from earlier work
[2] = system: rat model of traumatic brain injury; parameters: method as in Massa et al., 2010; details: ref Massa et al., 2010; cited from earlier work
[3] = biological target: T1, A1 (h) (Homo sapiens, UniProt P30542); experiment: Cerep ExpresSProfile radioligand binding; details: 10 micromolar, agonist radioligand
T1 construct: purchased Cerep (ExpresSProfile)
T1 sequence (P30542 1-326): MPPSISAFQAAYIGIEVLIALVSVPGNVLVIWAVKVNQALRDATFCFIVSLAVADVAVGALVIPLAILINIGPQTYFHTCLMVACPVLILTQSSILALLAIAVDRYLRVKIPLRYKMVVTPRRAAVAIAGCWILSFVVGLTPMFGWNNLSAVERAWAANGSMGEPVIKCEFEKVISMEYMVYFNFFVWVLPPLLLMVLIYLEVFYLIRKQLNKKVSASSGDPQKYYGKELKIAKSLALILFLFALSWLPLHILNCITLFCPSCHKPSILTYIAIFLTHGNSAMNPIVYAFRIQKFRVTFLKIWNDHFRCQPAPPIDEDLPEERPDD
Experimental: (§1) To evaluate the relative binding specificity of LM22A-4 ([Massa et al., 2010]) and PTX-BD4-3, binding to a broad range of 55 pharmacologically relevant receptors, including numerous neurotransmitter and G-protein coupled receptors was assessed using standard radioligand competition binding assays (ExpressSProfile) performed by Cerep, Inc. (Seattle, WA, USA). In addition, ADME-Tox analysis was performed by Cerep, Inc. All experimental conditions are described on the Cerep website (www.cerep.fr).
(§2) Ligand % Inhibition of Control Specific […]
(§3) 48 Ca2+ channel (L, verapamil site) 0 ‐1.3 ‐0.7
(§4) (phenylalkylamine) (antagonist radioligand) […]
(§5) 51 Na+ channel (site 2) (antagonist radioligand) 0.6 11.7 6.1
(§6) 52 Cl‐ channel (GABA‐gated) (antagonist 2.7 ‐5.3 ‐1.3 […]
(§7) Table S1. In vitro binding assays. An ExpresSProfile screen of PTX-BD4-3 binding to a panel of pharmacologically relevant receptors was conducted by Cerep, Inc.
(§8) (Eurofins Panlabs, MO). The results are expressed as percent inhibition of control specific binding obtained in the presence of 10 micromolar PTX-BD4-3. In this assay, values below 50% indicate no specific binding of PTX-BD4-3. The assay was negative for PTX-BD4-3 binding to all of the 55 receptors in the screen.
(§9) (also on this page, place not known: 2B 5‐HT 3 5‐HT 5a 5‐HT 6 5‐HT 7 (agonis t VPAC 1 V 1 Ca 2+ K V SK Ca Na + Cl ‐ 5‐HT Disease Models & Mechanisms: doi:10.1242/dmm.044685: Supplementary information Disease Models & Mechanisms • Supplementary information)

[4] = system: GABA (non-selective); experiment: Cerep ExpresSProfile radioligand binding; details: 10 micromolar; agonist radioligand
Experimental: as §1, §2, §3, §4, §5, §6, §7, §8, §9

[5] = biological target: T2, D2S (h) (Homo sapiens, UniProt P14416); experiment: Cerep ExpresSProfile radioligand binding; details: 10 micromolar; antagonist radioligand; read-out: % Inhibition of Control Specific Binding 2nd
T2 construct: purchased Cerep (ExpresSProfile)
T2 sequence (P14416 1-414 isoform P14416-2): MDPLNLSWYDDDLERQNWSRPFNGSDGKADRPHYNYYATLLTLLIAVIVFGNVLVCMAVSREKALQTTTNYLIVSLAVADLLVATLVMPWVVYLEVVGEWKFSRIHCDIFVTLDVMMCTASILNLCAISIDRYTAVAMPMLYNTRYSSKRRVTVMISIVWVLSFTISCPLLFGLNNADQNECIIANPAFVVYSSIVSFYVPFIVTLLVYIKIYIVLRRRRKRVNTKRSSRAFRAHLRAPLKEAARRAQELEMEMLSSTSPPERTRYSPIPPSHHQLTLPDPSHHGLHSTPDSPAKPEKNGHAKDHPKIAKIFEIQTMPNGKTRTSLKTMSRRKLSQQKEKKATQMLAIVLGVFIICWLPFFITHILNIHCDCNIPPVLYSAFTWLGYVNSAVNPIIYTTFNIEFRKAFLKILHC
Experimental: as §1, §2, §3, §4, §5, §6, §7, §8, §9

[6] = system: α2 (non-selective); experiment: Cerep ExpresSProfile radioligand binding; details: 10 micromolar; antagonist radioligand
Experimental: as §1, with “(www.cerep.fr). […]” for “(www.cerep.fr).”
as §7, §8, §9

[7] = biological target: T3, norepinephrine transporter (h) (Homo sapiens, UniProt P23975); experiment: Cerep ExpresSProfile radioligand binding; details: 10 micromolar, antagonist radioligand
T3 construct: Cerep, Inc. (contract screen)
T3 sequence (P23975 whole entry): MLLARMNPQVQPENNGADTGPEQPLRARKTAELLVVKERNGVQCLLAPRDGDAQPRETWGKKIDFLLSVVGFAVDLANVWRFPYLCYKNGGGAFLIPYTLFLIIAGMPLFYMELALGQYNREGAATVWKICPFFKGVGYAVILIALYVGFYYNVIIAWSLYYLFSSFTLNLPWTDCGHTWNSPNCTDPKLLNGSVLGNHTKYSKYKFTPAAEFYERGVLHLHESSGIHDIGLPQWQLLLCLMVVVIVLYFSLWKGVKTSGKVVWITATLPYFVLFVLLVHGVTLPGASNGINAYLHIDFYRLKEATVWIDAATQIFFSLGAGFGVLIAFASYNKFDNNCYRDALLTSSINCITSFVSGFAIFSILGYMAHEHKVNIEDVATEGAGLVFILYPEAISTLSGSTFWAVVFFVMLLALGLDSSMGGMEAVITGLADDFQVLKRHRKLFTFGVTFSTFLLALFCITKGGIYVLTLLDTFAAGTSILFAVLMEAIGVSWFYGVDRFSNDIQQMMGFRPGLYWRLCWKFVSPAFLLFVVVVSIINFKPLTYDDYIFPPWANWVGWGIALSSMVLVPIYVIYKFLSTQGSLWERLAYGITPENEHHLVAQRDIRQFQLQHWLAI
Experimental: as §1, with “(www.cerep.fr). […]” for “(www.cerep.fr).”
as §7, §8, §9

[8] = biological target: T4, 5-HT3 (h) (Homo sapiens, UniProt P46098); experiment: Cerep ExpresSProfile radioligand binding; details: 10 micromolar, antagonist radioligand
T4 construct: Cerep, Inc. (contract screen)
T4 sequence (P46098 24-478): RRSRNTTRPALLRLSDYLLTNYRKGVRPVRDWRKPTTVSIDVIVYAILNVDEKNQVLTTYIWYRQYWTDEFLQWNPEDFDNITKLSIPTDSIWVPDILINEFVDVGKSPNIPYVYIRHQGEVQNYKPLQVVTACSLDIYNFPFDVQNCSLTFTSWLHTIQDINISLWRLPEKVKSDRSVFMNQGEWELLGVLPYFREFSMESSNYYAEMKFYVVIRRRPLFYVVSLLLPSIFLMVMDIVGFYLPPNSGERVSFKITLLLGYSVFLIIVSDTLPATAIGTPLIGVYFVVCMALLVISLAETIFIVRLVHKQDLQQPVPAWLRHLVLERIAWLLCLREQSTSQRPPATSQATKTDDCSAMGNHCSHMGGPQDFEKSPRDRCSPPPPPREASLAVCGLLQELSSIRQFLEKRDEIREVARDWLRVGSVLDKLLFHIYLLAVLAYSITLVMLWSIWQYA
Experimental: as §1, with “(www.cerep.fr). […]” for “(www.cerep.fr).”
as §7, §8, §9

[9] = system: Ca2+ channel (L, verapamil site) (phenylalkylamine); experiment: Cerep ExpresSProfile radioligand binding; details: 10 micromolar; antagonist radioligand
Experimental: as §1, with “(www.cerep.fr). […]” for “(www.cerep.fr).”
as §7, §8, §9

[10] = biological target: T5, M3 (h) (Homo sapiens, UniProt P20309); experiment: Cerep ExpresSProfile radioligand binding; details: 10 micromolar; antagonist radioligand; read-out: % Inhibition of Control Specific Binding 2nd
T5 construct: purchased Cerep (ExpresSProfile)
T5 sequence (P20309 whole entry): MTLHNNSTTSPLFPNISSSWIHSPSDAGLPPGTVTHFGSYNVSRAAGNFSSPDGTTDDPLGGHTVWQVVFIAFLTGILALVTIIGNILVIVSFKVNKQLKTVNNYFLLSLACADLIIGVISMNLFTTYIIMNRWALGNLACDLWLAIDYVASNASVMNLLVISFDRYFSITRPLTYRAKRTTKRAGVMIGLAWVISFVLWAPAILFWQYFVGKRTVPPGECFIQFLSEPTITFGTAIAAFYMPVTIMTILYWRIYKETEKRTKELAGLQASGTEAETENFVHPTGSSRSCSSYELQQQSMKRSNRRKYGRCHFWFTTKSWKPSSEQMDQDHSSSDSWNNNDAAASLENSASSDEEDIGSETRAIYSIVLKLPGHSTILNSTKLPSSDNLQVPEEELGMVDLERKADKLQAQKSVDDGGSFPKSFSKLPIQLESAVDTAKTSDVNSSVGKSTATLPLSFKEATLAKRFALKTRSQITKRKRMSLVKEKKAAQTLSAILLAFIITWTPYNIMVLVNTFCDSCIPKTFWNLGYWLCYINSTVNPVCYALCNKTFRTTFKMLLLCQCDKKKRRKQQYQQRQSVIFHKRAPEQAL
Experimental: as §1, with “(www.cerep.fr). […]” for “(www.cerep.fr).”
as §7, §8, §9

[11] = biological target: T6, 5-HT2B (h) (Homo sapiens, UniProt P41595); experiment: Cerep ExpresSProfile radioligand binding; details: 10 micromolar, agonist radioligand
T6 construct: Cerep, Inc. (contract screen)
T6 sequence (P41595 whole entry): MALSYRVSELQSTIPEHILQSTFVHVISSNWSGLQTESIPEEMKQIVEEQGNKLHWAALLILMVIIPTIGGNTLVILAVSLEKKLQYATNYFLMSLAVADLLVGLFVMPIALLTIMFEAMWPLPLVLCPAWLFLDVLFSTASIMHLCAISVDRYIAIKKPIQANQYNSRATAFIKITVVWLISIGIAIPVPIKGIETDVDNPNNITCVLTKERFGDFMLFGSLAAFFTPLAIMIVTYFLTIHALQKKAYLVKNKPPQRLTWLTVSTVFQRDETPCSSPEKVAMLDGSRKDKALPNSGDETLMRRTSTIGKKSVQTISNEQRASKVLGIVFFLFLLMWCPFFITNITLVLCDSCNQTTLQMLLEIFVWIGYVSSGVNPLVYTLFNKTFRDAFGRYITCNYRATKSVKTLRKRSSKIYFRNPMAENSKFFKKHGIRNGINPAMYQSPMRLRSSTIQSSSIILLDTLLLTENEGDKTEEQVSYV
Experimental: as §1, with “(www.cerep.fr). […]” for “(www.cerep.fr).”
as §7, §8, §9

[12] = biological target: T7, NTS1 (NT1) (h) (Homo sapiens, UniProt P30989); experiment: Cerep ExpresSProfile radioligand binding; details: 10 micromolar, agonist radioligand
T7 construct: purchased Cerep (ExpresSProfile)
T7 sequence (P30989 whole entry): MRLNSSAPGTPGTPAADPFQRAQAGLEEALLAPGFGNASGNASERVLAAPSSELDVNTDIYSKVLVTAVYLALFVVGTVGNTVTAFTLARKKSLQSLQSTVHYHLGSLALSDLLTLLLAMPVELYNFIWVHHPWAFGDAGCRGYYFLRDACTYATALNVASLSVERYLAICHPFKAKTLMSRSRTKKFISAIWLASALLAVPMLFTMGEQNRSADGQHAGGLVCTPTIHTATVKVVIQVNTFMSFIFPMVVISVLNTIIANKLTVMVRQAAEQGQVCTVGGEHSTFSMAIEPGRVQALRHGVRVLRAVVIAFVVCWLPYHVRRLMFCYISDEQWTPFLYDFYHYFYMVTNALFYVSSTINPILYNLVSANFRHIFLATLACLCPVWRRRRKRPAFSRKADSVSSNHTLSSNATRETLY
Experimental: as §1, with “(www.cerep.fr). […]” for “(www.cerep.fr).”
as §7, §8, §9

[13] = system: Na+ channel (site 2); experiment: Cerep ExpresSProfile radioligand binding; details: 10 micromolar; antagonist radioligand
Experimental: as §1, with “(www.cerep.fr). […]” for “(www.cerep.fr).”
as §7, §8, §9

[14] = system: sst (non-selective); experiment: Cerep ExpresSProfile radioligand binding; details: 10 micromolar; agonist radioligand
Experimental: as §1, with “(www.cerep.fr). […]” for “(www.cerep.fr).”
as §7, §8, §9

[15] = system: α1 (non-selective); experiment: Cerep ExpresSProfile radioligand binding; details: 10 micromolar; antagonist radioligand
Experimental: as §1, with “(www.cerep.fr). […]” for “(www.cerep.fr).”
as §7, §8, §9

[16] = biological target: T8, H2 (h) (Homo sapiens, UniProt P25021); experiment: Cerep ExpresSProfile radioligand binding; details: 10 micromolar; antagonist radioligand; read-out: % Inhibition of Control Specific Binding 1st
T8 construct: purchased Cerep (ExpresSProfile)
T8 sequence (P25021 whole entry): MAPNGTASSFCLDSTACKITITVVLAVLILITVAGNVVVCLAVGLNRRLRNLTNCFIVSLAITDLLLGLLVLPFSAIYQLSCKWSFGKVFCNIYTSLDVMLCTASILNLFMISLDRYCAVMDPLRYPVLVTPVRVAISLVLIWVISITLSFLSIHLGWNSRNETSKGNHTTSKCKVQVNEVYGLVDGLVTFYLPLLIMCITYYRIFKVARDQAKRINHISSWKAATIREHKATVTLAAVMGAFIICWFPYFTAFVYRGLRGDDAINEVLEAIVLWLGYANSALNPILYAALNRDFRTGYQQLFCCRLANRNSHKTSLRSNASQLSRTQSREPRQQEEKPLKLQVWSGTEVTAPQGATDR
Experimental: as §1, with “(www.cerep.fr). […]” for “(www.cerep.fr).”
as §7, §8, §9

[17] = read-out: % Inhibition of Control Specific Binding 1st
[18] = read-out: % Inhibition of Control Specific Binding 2nd
[19] = read-out: % Inhibition of Control Specific Binding Mean

In the case of `O=C(NCCO)c1cc(C(=O)NCCO)cc(C(=O)NCCO)c1` [LM22A-4, N,N′,N′′-tris(2-hydroxyethyl)-1,3,5-benzenetricarboxamide, reference compound], the “behavioral learning in a spatial memory task” value [1] is listed as “improves behavioral learning” and the motor learning [2] is listed as “improve motor learning”.
With `COCCN(C)C(=O)c1cc(C(=O)N(C)CCOC)cc(C(=O)N(C)CCOC)c1` [PTX-BD4-3, benzene-1,3,5-tricarboxylic acid tris-[(2-methoxy-ethyl)-methyl-amide]] the inhibition at 10 µM [3, 17] was 8.9%, the inhibition at 10 µM [3, 18] was 5.6% and the inhibition at 10 µM [3, 19] was 7.2%. For the same molecule, the “% Inhibition of Control Specific Binding 1st” value [4] was 16.5%, the “% Inhibition of Control Specific Binding 2nd” value [4] was 19.1% and the “% Inhibition of Control Specific Binding Mean” value [4] was 17.8%. For the same molecule, the inhibition at 10 µM [5] was 2.4%, the “% Inhibition of Control Specific Binding 1st” value [6] was 1.8% and the “% Inhibition of Control Specific Binding 2nd” value [6] was 4.7%. The “% Inhibition of Control Specific Binding Mean” value [6] was 3.2%, the inhibition at 10 µM [7, 17] was 5.1% and the inhibition at 10 µM [7, 18] was 1.1%. For the same molecule, the inhibition at 10 µM [7, 19] was 3.1%, the inhibition at 10 µM [8, 17] was 6.9% and the inhibition at 10 µM [8, 18] was 13.4%. The inhibition at 10 µM [8, 19] was 10.1%, the “% Inhibition of Control Specific Binding 1st” value [9] was 0% and the inhibition at 10 µM [10] was 0.8%. It also gave an inhibition at 10 µM [11, 17] of 12.6%, an inhibition at 10 µM [11, 19] of 3.5% and an inhibition at 10 µM [12, 17] of 11.2%. The inhibition at 10 µM [12, 18] was 2.6%, the inhibition at 10 µM [12, 19] was 6.9% and the “% Inhibition of Control Specific Binding 1st” value [13] was 0.6%. For the same molecule, the “% Inhibition of Control Specific Binding 2nd” value [13] was 11.7%, the “% Inhibition of Control Specific Binding Mean” value [13] was 6.1% and the “% Inhibition of Control Specific Binding 1st” value [14] was 5.7%. For the same molecule, the “% Inhibition of Control Specific Binding Mean” value [14] was 0.3%, the “% Inhibition of Control Specific Binding 1st” value [15] was 0.9% and the inhibition at 10 µM [16] was 2.8%.
